Results from US11247996B2, “Small molecule inhibitors for transcription factors” (University of Massachusetts, priority 2016, dated 2022).

What was measured:
[1] = tested on: latent HIV-1 in J-Lat A2 cells; test: HIV-1 latency-reversing flow cytometry assay in J-Lat A2 cells; assay type: cell-based; details: 5 μM; for HIV-1 reactivation (GFP-positive cells): 24 hours post treatment
Method: (§1) The CD4+ T-lymphoid cell lines included Jurkat, J-Lat A2 (harboring an LTR-Tat-IRES-GFP construct), J-Lat 6.3, 8.4, 9.2, 10.4 (containing a full-length integrated HIV-1 genome with a defective envelop, that express GFP upon activation). Monocytic THP89GFP cells were provided by David Levy (New York University). Jurkat cells were cultured in RPMI with 10% FBS. THP89GFP and Primary CD4+ helper T cells (Sanguine Biosciences, Sherman Oaks, Calif. and Lonza Group Ltd., Basel, Switzerland) were cultured and maintained respectively in complete medium (RPMI 1640 with 10% FBS, lx glutamine, lx MEM non-essential amino acid solution, and 20 mM HEPES).
Wells were treated with 5 μM of compound or dimethyl sulfoxide (DMSO). GFP-positive cells were acquired and analyzed by flow cytometry at 24 hours post treatment.
(§2) All flow cytometry assays were conducted using an Accuri C6 Flow Cytometer (Accuri, Ann Arbor, Mich.). Cell debris and aggregates were excluded by gating on the Forward Scatter (FS) and Side Scatter (SS) parameters.

endogenous BRD4 = molecular target: T1, endogenous BRD4 (Homo sapiens, UniProt O60885); test: Pull-down with biotinylated UMB-136 from HEK293 cell lysate, BRD4 immunoblot; assay type: binding; details: biotinylated UMB-136, HEK293 cell lysate
T1 construct: endogenous in cells; host or cells: HEK293
Method: (§3) Pull-down and Immunoprecipitation (IP) assays were performed by incubating HEK293 cell lysate with either biotinylated UMB-136 or biotin in DMSO at 4° C. overnight with orbital rocking. MyOne™ Streptavidin T1 Dynabeads™ (Invitrogen, Carlsbad, Calif.) were added to the mixture which was then incubated for 2 hours. Beads were washed and then boiled to elute precipitated proteins, which were subjected to immunoblotting using BRD4 antibody (Bethyl Laboratories, Inc., Montgomery, Tex.) or BRD2 antibody (Santa Cruz Biotechnology, Dallas, Tex.).

BRD2 = molecular target: T2, BRD2 (Homo sapiens, UniProt P25440); test: Pull-down with biotinylated UMB-136 from HEK293 cell lysate, BRD2 immunoblot; assay type: binding; details: biotinylated UMB-136, HEK293 cell lysate
T2 construct: endogenous in cells; host or cells: HEK293
T2 sequence (P25440 whole entry): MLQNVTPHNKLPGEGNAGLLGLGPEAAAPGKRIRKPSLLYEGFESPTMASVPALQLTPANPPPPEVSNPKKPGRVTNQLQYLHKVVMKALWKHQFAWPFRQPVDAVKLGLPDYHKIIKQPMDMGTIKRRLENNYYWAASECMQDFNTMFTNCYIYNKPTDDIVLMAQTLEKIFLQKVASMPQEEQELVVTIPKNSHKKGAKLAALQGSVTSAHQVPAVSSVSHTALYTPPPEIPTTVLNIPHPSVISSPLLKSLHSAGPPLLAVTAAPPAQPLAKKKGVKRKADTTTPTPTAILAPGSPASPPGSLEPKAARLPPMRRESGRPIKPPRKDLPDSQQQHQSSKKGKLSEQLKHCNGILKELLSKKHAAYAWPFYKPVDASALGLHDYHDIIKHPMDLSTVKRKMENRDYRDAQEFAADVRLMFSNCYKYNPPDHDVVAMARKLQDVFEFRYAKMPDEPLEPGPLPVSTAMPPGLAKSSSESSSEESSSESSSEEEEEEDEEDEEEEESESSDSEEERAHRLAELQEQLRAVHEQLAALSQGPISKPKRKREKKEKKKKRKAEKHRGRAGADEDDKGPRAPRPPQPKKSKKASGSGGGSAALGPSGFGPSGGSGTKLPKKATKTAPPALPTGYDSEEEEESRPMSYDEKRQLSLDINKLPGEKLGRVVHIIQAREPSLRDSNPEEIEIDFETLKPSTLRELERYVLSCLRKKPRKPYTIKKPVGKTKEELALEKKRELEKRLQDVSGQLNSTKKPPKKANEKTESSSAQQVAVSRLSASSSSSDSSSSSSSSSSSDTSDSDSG
Method: as §3

P-TEFb (CCNT1) and Tat = test: Tat-Flag immunoprecipitation in HeLa cells, Cyclin T1 immunoblot; assay type: cell-based; details: 2.5 μM, 24 hours
Method: Tat-Flag expressing HeLa cells were treated with UMB-136 (2.5 μM) or DMSO for 24 hours, then incubated with Magnetic Flag Conjugated beads (Clontech, Mountain View, Calif.) at 4° C. for overnight with orbital rocking. Beads were washed and boiled, then immunoblotting was performed using Cyclin T1 antibody (Santa Cruz Biotechnology, Dallas, Tex.).

[2] = tested on: VSV-G pseudo-typed HIV-1 NL4-3-Luciferase virus infected Jurkat cells; assay type: cell-based
[3] = tested on: full-length HIV-1 NL4-3 (X4) viruses in Jurkat cells; test: Viral production in full-length HIV-1 NL4-3 infected Jurkat cells (qRT-PCR of medium); assay type: cell-based; details: full replication competent NL4-3 infected Jurkat cells, 24 hours
Method: To determine the effect of UMB-136 on HIV-1 replication, Jurkat cells were infected with full-length HIV-1 NL4-3 (X4) viruses for 8 hours before being treated with compounds (UMB-136, JQ1, or prostratin) for 24 hours. The medium was collected and subjected to viral RNA extraction, reverse transcription, and qPCR assays by using Lenti-X™ qRT-PCR Titration Kit (Clontech, Mountain View, Calif.) following the manufacturer's instructions.

[4] = tested on: latent HIV-1 in J-Lat clones (6.3, 8.4, 9.2, and 10.4); test: Flow cytometry on J-Lat full-length (dEnv) clones, single LRA; assay type: cell-based; details: J-Lat 6.3, 8.4, 9.2, 10.4; UMB-136 2.5 and 5 (printed PM), JQ1 1 μM; 24 hours
Method: as §1
(§4) The HIV-1 latency-reversing effect of UMB-136 was evaluated on different reservoirs (lymphocytes and macrophages), J-Lat cell clones (6.3, 8.4, 9.2, and 10.4) and THP89GFP were treated with DMSO, JQ1 (1 μM), or UMB-136 (2.5, 5 μM for J-Lat cells, 5 μM for THP89GFP). For the investigation of synergistic effects JLat clones were treated with UMB-136 (2.5 μM), JQ1 (1 μM), SAHA (0.5 μM) or prostratin (1 μM) or DMSO as a control. Drugs were used alone or in combination. Flow cytometry was conducted at 24 hours post treatment and GFP-positive cells were quantified.
(§5) All flow cytometry assays were conducted using an Accuri C6 Flow Cytometer (Accuri, Ann Arbor, Mich.). […]

[5] = tested on: latent HIV-1 89.6 strain in THP89GFP cells; test: Flow cytometry on THP89GFP monocytic latency cells; assay type: cell-based; details: UMB-136 5 μM, JQ1 1 μM, 24 hours
Method: as §1, §4, §5

[6] = tested on: latent HIV-1 in non-polarized, memory CD4+ T cells; test: Primary CD4+ T cell model of HIV-1 latency (blood or tonsil); assay type: cell-based; details: primary CD4+ T cells from blood or lymph node (tonsil), two donors; compound alone
Method: To acquire primary CD4+ T cells, primary CD4+ T cells were isolated from either lymphoid tissue (tonsil) or from the peripheral blood of two donors. Tonsils were isolated from HIV-negative donors, with obstructive sleep apnea (OSA), whom required surgical removal of their tonsils. Isolation of tonsillar mononuclear cells (TMC) was performed as described in Johnston et al. Curr Protoc Immunol Chapter 7, Unit 7-8. In brief, fresh, healthy tonsils kept in ice-cold 1× Hank's Balanced Salt Solution (HBSS) with antibiotics (100 U/mL penicillin, 100 ug/mL streptomycin, 5 ug/mL gentamicin, 0.5 ug/mL amphotericin) were cut into 3- to 10-mm fragments with scalpels then pushed through a 3-inch stainless steel sieve using the flat end of a 5-mL plastic syringe plunger. […]
The LRA effect of UMB-136 was studied by modifying slightly a primary CD4+ T cell model of HIV-1 latency as described in Bosque et al. Methods. […] On day 21, 5 days post treatment, the supernatant was collected for quantification of newly produced viruses using the Lent-X™ qRT-PCR Titration Kit (Clontech, Mountain View, Calif.) following the manufacturer's instructions.

primary CD4+ T cells = test: Cytokine release in primary CD4+ T cells from healthy donor; assay type: cell-based
[7] = tested on: latent HIV-1 in J-Lat clones (6.3, 8.4, 9.2, and 10.4); test: LRA combinations in J-Lat clones (flow cytometry, Bliss independence model); assay type: cell-based; details: for Synergy in reversing HIV-1, combination with prostratin: +prostratin 1 μM
Method: as §4, §2

[8] = tested on: latent HIV-1 in CD8-depleted PBMCs; test: Ex vivo latency reversal in CD8-depleted PBMCs of cART-treated aviremic patients (nested qPCR); assay type: cell-based
CD8-depleted PBMCs = test: Cell death due to LRA treatments in CD8-depleted PBMCs; assay type: cell-based; details: compared with JQ1 combinations
Jurkat cells = details: human, 24 h, 2.5 μM
Method: Cell viability assays were performed by culturing Jurkat cells in a 48-well plate at 1×10^5 cells per well in a total volume of 250 μl RPMI media with 10% FBS. […] After an incubation period of 24 hours, cells were lysed. The total ATP content was measured using Cell Titer Glo (Promega Corporation, Madison, Wis.).

[9] = tested on: latent HIV-1 in CD8-depleted PBMCs; details: JQ1 in combination with bryostatin-1, earlier reports; cited from earlier work
BRD4 = BRD4 (Homo sapiens, UniProt O60885); details: McKeown et al., J Med Chem, 2014; cited from earlier work
TAF1 = TAF1 (Homo sapiens, UniProt P21675); details: McKeown et al., J Med Chem, 2014; cited from earlier work
Chain of TAF1 (P21675 whole entry): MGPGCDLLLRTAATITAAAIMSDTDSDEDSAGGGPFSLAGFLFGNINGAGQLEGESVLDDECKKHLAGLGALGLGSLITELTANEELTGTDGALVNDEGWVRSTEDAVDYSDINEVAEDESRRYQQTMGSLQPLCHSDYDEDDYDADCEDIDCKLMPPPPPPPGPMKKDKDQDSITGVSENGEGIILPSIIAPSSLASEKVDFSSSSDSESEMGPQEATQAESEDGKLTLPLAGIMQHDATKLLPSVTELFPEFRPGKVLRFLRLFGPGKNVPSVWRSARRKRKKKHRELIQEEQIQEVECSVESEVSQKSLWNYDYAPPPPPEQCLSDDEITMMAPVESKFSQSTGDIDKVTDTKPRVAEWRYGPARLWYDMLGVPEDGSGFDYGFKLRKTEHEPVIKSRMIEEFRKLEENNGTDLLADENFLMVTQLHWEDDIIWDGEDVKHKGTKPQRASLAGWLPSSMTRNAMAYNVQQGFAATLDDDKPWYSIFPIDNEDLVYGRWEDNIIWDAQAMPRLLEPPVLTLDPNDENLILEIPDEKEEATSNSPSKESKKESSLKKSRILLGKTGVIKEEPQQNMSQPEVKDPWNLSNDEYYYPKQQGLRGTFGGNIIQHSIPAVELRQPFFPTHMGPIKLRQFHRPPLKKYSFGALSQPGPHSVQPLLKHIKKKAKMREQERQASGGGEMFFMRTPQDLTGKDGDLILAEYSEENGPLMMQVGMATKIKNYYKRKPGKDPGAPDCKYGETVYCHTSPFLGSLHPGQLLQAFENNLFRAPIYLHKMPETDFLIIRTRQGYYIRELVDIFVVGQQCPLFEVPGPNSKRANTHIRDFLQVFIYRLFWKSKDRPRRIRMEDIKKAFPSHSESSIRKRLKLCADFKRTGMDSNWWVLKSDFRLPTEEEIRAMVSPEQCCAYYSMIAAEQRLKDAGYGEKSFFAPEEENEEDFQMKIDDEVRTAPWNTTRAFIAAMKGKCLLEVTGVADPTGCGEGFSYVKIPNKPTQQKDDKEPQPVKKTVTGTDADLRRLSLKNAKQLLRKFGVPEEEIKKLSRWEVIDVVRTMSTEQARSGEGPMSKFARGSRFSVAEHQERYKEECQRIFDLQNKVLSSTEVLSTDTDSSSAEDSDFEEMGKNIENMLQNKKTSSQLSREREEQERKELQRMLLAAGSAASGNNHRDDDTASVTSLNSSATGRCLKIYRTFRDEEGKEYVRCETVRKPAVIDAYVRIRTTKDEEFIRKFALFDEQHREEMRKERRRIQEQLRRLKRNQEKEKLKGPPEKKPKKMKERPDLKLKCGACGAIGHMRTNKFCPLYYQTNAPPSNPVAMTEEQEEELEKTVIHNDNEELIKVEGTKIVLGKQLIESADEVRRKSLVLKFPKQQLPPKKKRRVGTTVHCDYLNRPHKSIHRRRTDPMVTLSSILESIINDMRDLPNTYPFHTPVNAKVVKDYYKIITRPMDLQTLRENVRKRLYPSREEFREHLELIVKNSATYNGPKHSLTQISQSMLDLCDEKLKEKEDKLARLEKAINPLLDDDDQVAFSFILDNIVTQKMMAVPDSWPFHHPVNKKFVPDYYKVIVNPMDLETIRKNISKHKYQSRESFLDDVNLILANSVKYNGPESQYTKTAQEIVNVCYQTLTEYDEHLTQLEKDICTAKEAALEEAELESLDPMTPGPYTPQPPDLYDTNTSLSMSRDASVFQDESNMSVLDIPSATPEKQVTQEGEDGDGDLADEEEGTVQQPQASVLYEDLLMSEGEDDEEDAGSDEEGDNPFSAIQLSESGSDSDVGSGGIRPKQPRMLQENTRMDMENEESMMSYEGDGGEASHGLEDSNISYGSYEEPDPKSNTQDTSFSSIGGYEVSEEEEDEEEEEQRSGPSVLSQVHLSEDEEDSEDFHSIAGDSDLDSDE

[10] = J-Lat clones, Bliss independence model

COc1cc(-c2c(C)noc2C)ccc1-c1nc2cnccn2c1NC1CCCCC1 [UMB-136]
HIV-1 latency-reversing potency relative to other UMB compounds ([1]; 24 hours): most effective of all
HIV-1 reactivation (GFP-positive cells) [1]: significantly induced HIV-1 reactivation
Binding to endogenous BRD4 (pull-down) (endogenous BRD4): binds to endogenous BRD4
Binding to BRD2 (pull-down) (BRD2): not BRD2
Protein association between P-TEFb (CCNT1) and Tat (P-TEFb (CCNT1) and Tat): greater protein association between P-TEFb (CCNT1) and Tat
HIV-1 transcriptional initiation and elongation [2]: enhances both transcriptional initiation and elongation of HIV-1
Viral production [3]: enhanced viral production
Reversal of HIV-1 latency (GFP-positive cells) [4]: dramatically reversed HIV-1 latency
Reactivation of latent HIV-1 [5]: substantial reactivation
Reactivation of latent virus [6]: efficiently reactivated latent virus
Cytokine release (primary CD4+ T cells): does not induce cytokine release
Synergy in reversing HIV-1, combination with SAHA ([7]; J-Lat clones, Bliss independence model, +SAHA 0.5 μM): statistically significant synergistic effect
Synergy in reversing HIV-1, combination with prostratin [7, 10]: statistically significant synergistic effect
HIV-1 reactivation in combination with SAHA or prostratin, compared with JQ1 combination ([7]; J-Lat clones, UMB-136 2.5 μM, SAHA 0.5 μM, prostratin 1 μM): greater effect of HIV-1 reactivation than its JQ1 counterpart
Viral reactivation, combination with bryostatin-1, compared with JQ1+bryostatin-1 [8]: even greater viral reactivation
Reversal of HIV-1 latency, combination with PKC agonists (prostratin or bryostatin-1) ([8]; CD8-depleted PBMCs, UMB-136 2.5 μM, prostratin 250 nM or bryostatin-1 10 nM, 48 hours): observed to reverse HIV-1 latency
Cytotoxicity (cell death) of combinations with prostratin/bryostatin-1 (CD8-depleted PBMCs): less cytotoxicity than JQ1 and prostratin/bryostatin-1 combinations
Cell viability (Jurkat cells): same viability as 1 μM of JQ1

Cc1sc2c(c1C)C(c1ccc(Cl)cc1)=N[C@@H](CC(=O)OC(C)(C)C)c1nnc(C)n1-2 [JQ1, reference compound]
Viral production [3]: did not
Reversal of HIV-1 latency (GFP-positive cells) [4]: no observable effect
Reactivation of latent HIV-1 [5]: did not
Reactivation of latent virus [6]: fails to do so
Reactivation of latent HIV-1, combination with SAHA ([7]; J-Lat cell clones, JQ1+SAHA combination): minimally reactivates latent HIV-1
Synergy in reversing HIV-1, combination with prostratin [7, 10]: significantly synergizes with prostratin
Reversal of HIV-1 latency, combination with bryostatin-1 (reported) [9]: potently reverse HIV-1 latency

Cc1noc(C)c1-c1ccc(-c2nc3cnccn3c2NC(C)(C)C)cc1 [UMB-32]
HIV-1 reactivation (GFP-positive cells) [1]: significantly induced HIV-1 reactivation
Binding to BRD4 (BRD4): strongly binds
Inhibition of target binding of BRD4 (BRD4): potently inhibits the target binding of BRD4
Binding to TAF1 (TAF1): strongly binds
